Assay: xn = mol fraction of the nth substance listed
Details: Liquid, Vibrating tube method

CC(C)=O [acetone] + CCCCCCC
Details	mass density [kg/m3]
347.61 K, 99820 kPa, x1 = 0.7024	766.18
347.61 K, 104810 kPa, x1 = 0.7024	768.98
347.61 K, 109800 kPa, x1 = 0.7024	771.73
347.61 K, 114810 kPa, x1 = 0.7024	774.41
347.61 K, 119820 kPa, x1 = 0.7024	777.02
347.61 K, 124830 kPa, x1 = 0.7024	779.56
347.61 K, 129810 kPa, x1 = 0.7024	782.01
347.62 K, 1020 kPa, x1 = 0.801	689
347.62 K, 1220 kPa, x1 = 0.4	705.05
347.62 K, 1220 kPa, x1 = 0.8992	705.05
347.62 K, 4860 kPa, x1 = 0.801	695.13
347.62 K, 5030 kPa, x1 = 0.4	711.05
347.62 K, 5030 kPa, x1 = 0.8992	711.05
347.62 K, 9870 kPa, x1 = 0.801	702.45
347.62 K, 10010 kPa, x1 = 0.4	718.22
347.62 K, 10010 kPa, x1 = 0.8992	718.22
347.62 K, 14850 kPa, x1 = 0.801	709.08
347.62 K, 15000 kPa, x1 = 0.4	724.83
347.62 K, 15000 kPa, x1 = 0.8992	724.83
347.62 K, 19850 kPa, x1 = 0.801	715.23
347.62 K, 24850 kPa, x1 = 0.801	720.94
347.62 K, 29860 kPa, x1 = 0.801	726.31
347.62 K, 34950 kPa, x1 = 0.4	746.98
347.62 K, 34950 kPa, x1 = 0.8992	746.98
347.62 K, 39850 kPa, x1 = 0.801	736.15
347.62 K, 39940 kPa, x1 = 0.4	751.76
347.62 K, 39940 kPa, x1 = 0.8992	751.76
347.62 K, 44930 kPa, x1 = 0.4	756.3
347.62 K, 44930 kPa, x1 = 0.8992	756.3
347.62 K, 49910 kPa, x1 = 0.4	760.61
347.62 K, 49910 kPa, x1 = 0.8992	760.61
347.62 K, 54840 kPa, x1 = 0.801	749.08
347.62 K, 54890 kPa, x1 = 0.4	764.72
347.62 K, 54890 kPa, x1 = 0.8992	764.72
347.62 K, 59880 kPa, x1 = 0.4	768.69
347.62 K, 59880 kPa, x1 = 0.8992	768.69
347.62 K, 64870 kPa, x1 = 0.4	772.47
347.62 K, 64870 kPa, x1 = 0.8992	772.47
347.62 K, 69850 kPa, x1 = 0.4	776.15
347.62 K, 69850 kPa, x1 = 0.8992	776.15
347.62 K, 74830 kPa, x1 = 0.4	779.64
347.62 K, 74830 kPa, x1 = 0.8992	779.64
347.62 K, 74890 kPa, x1 = 0.801	763.9
347.62 K, 79820 kPa, x1 = 0.4	783.06
347.62 K, 79820 kPa, x1 = 0.8992	783.06
347.62 K, 79870 kPa, x1 = 0.801	767.26
347.62 K, 84800 kPa, x1 = 0.4	786.42
347.62 K, 84800 kPa, x1 = 0.8992	786.42
347.62 K, 89780 kPa, x1 = 0.4	789.6
347.62 K, 89780 kPa, x1 = 0.8992	789.6
347.62 K, 94760 kPa, x1 = 0.4	792.68
347.62 K, 94760 kPa, x1 = 0.8992	792.68
347.62 K, 99740 kPa, x1 = 0.4	795.68
347.62 K, 99740 kPa, x1 = 0.8992	795.68
347.62 K, 99810 kPa, x1 = 0.801	779.62
347.62 K, 104710 kPa, x1 = 0.4	798.57
347.62 K, 104710 kPa, x1 = 0.8992	798.57
347.62 K, 109700 kPa, x1 = 0.4	801.41
347.62 K, 109700 kPa, x1 = 0.8992	801.41
347.62 K, 114660 kPa, x1 = 0.4	804.17
347.62 K, 114660 kPa, x1 = 0.8992	804.17
347.62 K, 119630 kPa, x1 = 0.4	806.86
347.62 K, 119630 kPa, x1 = 0.8992	806.86
347.62 K, 124610 kPa, x1 = 0.4	809.5
347.62 K, 124610 kPa, x1 = 0.8992	809.5
347.62 K, 124830 kPa, x1 = 0.801	793.29
347.62 K, 129570 kPa, x1 = 0.4	812.05
347.62 K, 129570 kPa, x1 = 0.8992	812.05
347.63 K, 1030 kPa, x1 = 0.492	657.71
347.63 K, 1030 kPa, x1 = 0.611	666.96
347.63 K, 4850 kPa, x1 = 0.492	663.76
347.63 K, 4870 kPa, x1 = 0.611	673.09
347.63 K, 9850 kPa, x1 = 0.492	670.93
347.63 K, 9870 kPa, x1 = 0.611	680.36
347.63 K, 14850 kPa, x1 = 0.492	677.45
347.63 K, 19850 kPa, x1 = 0.492	683.45
347.63 K, 19980 kPa, x1 = 0.4	730.92
347.63 K, 19980 kPa, x1 = 0.8992	730.92
347.63 K, 24860 kPa, x1 = 0.492	689
347.63 K, 24960 kPa, x1 = 0.4	736.6
347.63 K, 24960 kPa, x1 = 0.8992	736.6
347.63 K, 29860 kPa, x1 = 0.492	694.2
347.63 K, 29960 kPa, x1 = 0.4	741.95
347.63 K, 29960 kPa, x1 = 0.8992	741.95
347.63 K, 34850 kPa, x1 = 0.492	699.05
347.63 K, 34850 kPa, x1 = 0.801	731.37
347.63 K, 39860 kPa, x1 = 0.492	703.65
347.63 K, 44850 kPa, x1 = 0.801	740.65
347.63 K, 44870 kPa, x1 = 0.492	708.02
347.63 K, 49830 kPa, x1 = 0.492	712.11
347.63 K, 49850 kPa, x1 = 0.801	744.95
347.63 K, 54850 kPa, x1 = 0.492	716.07
347.63 K, 59840 kPa, x1 = 0.801	752.99
347.63 K, 59850 kPa, x1 = 0.492	719.82
347.63 K, 64820 kPa, x1 = 0.801	756.73
347.63 K, 64830 kPa, x1 = 0.492	723.43
347.63 K, 64920 kPa, x1 = 0.611	733.74
347.63 K, 69910 kPa, x1 = 0.801	760.44
347.63 K, 69920 kPa, x1 = 0.611	737.26
347.63 K, 69930 kPa, x1 = 0.492	726.98
347.63 K, 74910 kPa, x1 = 0.492	730.29
347.63 K, 79900 kPa, x1 = 0.492	733.48
347.63 K, 84860 kPa, x1 = 0.801	770.5
347.63 K, 84880 kPa, x1 = 0.492	736.56
347.63 K, 89840 kPa, x1 = 0.801	773.63
347.63 K, 89860 kPa, x1 = 0.492	739.56
347.63 K, 94820 kPa, x1 = 0.801	776.66
347.63 K, 104780 kPa, x1 = 0.801	782.49
347.63 K, 104800 kPa, x1 = 0.492	747.95
347.63 K, 109760 kPa, x1 = 0.611	761.37
347.63 K, 109760 kPa, x1 = 0.801	785.29
347.63 K, 109770 kPa, x1 = 0.492	750.58
347.63 K, 114860 kPa, x1 = 0.801	788.08
347.63 K, 119840 kPa, x1 = 0.801	790.72
347.63 K, 124840 kPa, x1 = 0.492	758.13
347.63 K, 124840 kPa, x1 = 0.611	769.09
347.63 K, 129860 kPa, x1 = 0.492	760.49
347.63 K, 129860 kPa, x1 = 0.801	795.81
347.64 K, 14870 kPa, x1 = 0.611	686.95
347.64 K, 19860 kPa, x1 = 0.611	693.03
347.64 K, 24870 kPa, x1 = 0.611	698.69
347.64 K, 29860 kPa, x1 = 0.611	703.93
347.64 K, 34870 kPa, x1 = 0.611	708.89
347.64 K, 39870 kPa, x1 = 0.611	713.55
347.64 K, 44850 kPa, x1 = 0.611	717.99
347.64 K, 49850 kPa, x1 = 0.611	722.19
347.64 K, 54850 kPa, x1 = 0.611	726.18
347.64 K, 59940 kPa, x1 = 0.611	730.09
347.64 K, 74910 kPa, x1 = 0.611	740.63
347.64 K, 79900 kPa, x1 = 0.611	743.88
347.64 K, 84880 kPa, x1 = 0.611	747.05
347.64 K, 89870 kPa, x1 = 0.611	750.1
347.64 K, 94840 kPa, x1 = 0.611	753.04
347.64 K, 94850 kPa, x1 = 0.492	742.44
347.64 K, 99820 kPa, x1 = 0.492	745.23
347.64 K, 99820 kPa, x1 = 0.611	755.91
347.64 K, 104780 kPa, x1 = 0.611	758.67
347.64 K, 114850 kPa, x1 = 0.492	753.18
347.64 K, 114870 kPa, x1 = 0.611	764.04
347.64 K, 119840 kPa, x1 = 0.611	766.59
347.64 K, 119860 kPa, x1 = 0.492	755.69
347.64 K, 129860 kPa, x1 = 0.611	771.5
357.54 K, 1050 kPa, x1 = 0.7024	664.83
357.54 K, 4810 kPa, x1 = 0.7024	671.47
357.54 K, 9820 kPa, x1 = 0.7024	679.43
357.54 K, 14810 kPa, x1 = 0.7024	686.58
357.54 K, 14860 kPa, x1 = 0.611	677.52
357.54 K, 19810 kPa, x1 = 0.7024	693.14
357.54 K, 24800 kPa, x1 = 0.7024	699.18
357.54 K, 29900 kPa, x1 = 0.7024	704.93
357.54 K, 34880 kPa, x1 = 0.7024	710.21
357.54 K, 39870 kPa, x1 = 0.7024	715.16
357.54 K, 44860 kPa, x1 = 0.7024	719.83
357.54 K, 49860 kPa, x1 = 0.7024	724.29
357.54 K, 54850 kPa, x1 = 0.7024	728.52
357.54 K, 59830 kPa, x1 = 0.7024	732.55
357.54 K, 64830 kPa, x1 = 0.7024	736.42
357.54 K, 69820 kPa, x1 = 0.7024	740.13
357.54 K, 74790 kPa, x1 = 0.7024	743.68
357.54 K, 84760 kPa, x1 = 0.7024	750.39
357.54 K, 94820 kPa, x1 = 0.7024	756.74
357.55 K, 1070 kPa, x1 = 0.611	655.88
357.55 K, 1080 kPa, x1 = 0.492	647.12
357.55 K, 1300 kPa, x1 = 0.4	692.98
357.55 K, 1300 kPa, x1 = 0.8992	692.98
357.55 K, 4850 kPa, x1 = 0.492	653.64
357.55 K, 4860 kPa, x1 = 0.611	662.51
357.55 K, 5030 kPa, x1 = 0.4	699.4
357.55 K, 5030 kPa, x1 = 0.8992	699.4
357.55 K, 9850 kPa, x1 = 0.492	661.43
357.55 K, 9860 kPa, x1 = 0.611	670.41
357.55 K, 10030 kPa, x1 = 0.4	707.18
357.55 K, 10030 kPa, x1 = 0.8992	707.18
357.55 K, 14850 kPa, x1 = 0.492	668.43
357.55 K, 15010 kPa, x1 = 0.4	714.27
357.55 K, 15010 kPa, x1 = 0.8992	714.27
357.55 K, 19840 kPa, x1 = 0.492	674.79
357.55 K, 19870 kPa, x1 = 0.611	684.02
357.55 K, 20010 kPa, x1 = 0.4	720.81
357.55 K, 20010 kPa, x1 = 0.8992	720.81
357.55 K, 24840 kPa, x1 = 0.492	680.72
357.55 K, 24850 kPa, x1 = 0.611	689.97

From the NIST ThermoML archive (doi:10.1016/j.fluid.2010.10.028)
